Measurements published in ChEMBL document CHEMBL5725298 (2017).

Test: Anti-HIV Cytoprotection Assay: The in vitro antiviral activity profile for CMX157 was evaluated for cell-type effects and HIV strain effects.

`C[C@H](Cn1cnc2c(N)ncnc21)OCP(=O)(O)OCCCOCC(=O)O` and `C[C@H](Cn1cnc2c(N)ncnc21)OCP(=O)(O)OCCCOCCCC(=O)O` cannot be ordered by EC50: > 10 µM for the first, > 10 µM for the second.

Going from `C[C@H](Cn1cnc2c(N)ncnc21)OCP(=O)(O)OCCCO` to `CCCCCCCCCCCCCCCCOCCCOP(=O)(O)CO[C@H](C)Cn1cnc2c(N)ncnc21` [TENOFOVIR EXALIDEX], the EC50 falls from > 10 µM to < 0.03 µM. The second is the more potent here.
